# Data from paper PMC5532403, “Potential for a novel manganese porphyrin compound as adjuvant canine lymphoma therapy” (Cancer Chemotherapy and Pharmacology, 2017).
# “And” between values parts separate entries of the source, which are not always exact repeats. Equal entries are not always repeated. “Also recorded” adds a separate entry of the source. Where two headings read alike, the source gives them in different places.
# Columns and labels:
# [1] = design: method as in PMID 26496207; conditions: cited from earlier work
# [2] = test system: primary human lymphoma samples; design: method as in PMID 19549914, PMID 25725417; conditions: ex vivo; cited from earlier work
# [3] = test system: murine lymphoma cell lines; design: method as in PMID 19549914, PMID 25725417; conditions: in vitro; cited from earlier work
# [4] = test system: normal dogs; assay: Laboratory health assessments (complete blood cell count, biochemistry panel, urinalysis); assay type: in vivo, dog
# Protocol: (§1) Safety was assessed by evaluation of standard physical and laboratory parameters of systemic health. A full physical examination was performed prior to initiation of the study and on each treatment and sampling day. Indirect blood pressure monitoring was performed using Cardell Vet Monitor 9401 Blood Pressure Monitor. Pulse was quantified as heart beats per minute according to manual counts, as well as quantified with a blood pressure monitor. There was good correlation between pulse rates counted with manual methods compared to the blood pressure monitor (Figure S1). Standard laboratory assessments (complete blood cell count, biochemistry panel, urinalysis) were repeated throughout the phases of the study to assess systemic health.
# [5] = test system: nonhuman primates; design: method as in PMID 27098749; conditions: sc every 3 days for 5 weeks; cited from earlier work
# [6] = design: method as in unpublished data; conditions: rats, 1 mg/kg; ref unpublished data; cited from earlier work
# [7] = mice, cited from earlier work
# [8] = test system: normal dogs; assay: Pulse monitoring in multiple dose study; assay type: in vivo, dog; conditions: 0.25 mg/kg sc Mon/Wed/Fri
# Protocol: as §1
# [9] = design: method as in PMID 27098749; conditions: non-human primates, 1 mg/kg; cited from earlier work
# [10] = test system: normal dogs; assay: Maximally tolerated dose / single-dose safety monitoring (pulse, blood pressure, drug reactions); assay type: in vivo, dog; conditions: for average heart rate at peak: 1 h after injection
# Protocol: as §1
# Thus, 1 mg/kg was selected as a safe initial dose for the MTD and single-dose PK studies in this work.
# [11] = test system: mice; design: method as in PMID 27098749; conditions: sc every 3 days for 5 weeks; cited from earlier work
# [12] = Single-dose pharmacokinetic study, plasma MnBuOE by LC-MS/MS; assay type: in vivo, dog
# Protocol: Intravenous catheters were placed in the jugular vein of each dog under heavy sedation (dexmedetomidine, 500 mcg/m^2) 24-h prior to initiation of the pharmacokinetic study to facilitate blood sampling. Baseline pulse and blood pressure (Cardell Vet Monitor 9401 Blood Pressure Monitor) were recorded prior administration of MnBuOE. MnBuOE (5.64 mg/mL) was injected subcutaneously in the dorsal intrascapular region. Following injection, 3–6 mL of blood was collected after 10 min, 30 min, 1 h, 2 h, 4 h, 6 h, 8 h, 24 h, 48 h, 72 h, 7 days, and 14 days into lithium heparin tubes (Vacutainer, 1.3 mL). Whole blood was centrifuged at 1500×g for 20 min, and plasma was collected and stored in 1% citric acid at −80 °C.
# Relevant PK parameters (e.g. C max, T max, AUC, clearance, t 1/2) were obtained by compartmental and non-compartmental modules within WinNonlin v. Plasma MnBuOE levels peaked at 30 min post-injection with a mean concentration of 3.993 μM (Fig. 2a), followed by a complex tissue distribution profile (non-linear trace in log-linear plot) within first 6 h post injection (Fig. 2a). […] Compartmental (first-order absorption—2 compartment model) calculations including 0–48 h data were performed on the averaged PK profile for the purpose of obtaining PK parameters needed for the simulation of the multi-dose regimen.
# [13] = test system: normal dogs; assay: Histopathologic evaluation of necropsy tissues; assay type: in vivo, dog; conditions: 0.25 mg/kg Mon/Wed/Fri five doses
# Protocol: Tissue samples collected at necropsy were stored in 10% neutral buffered formalin, paraffin embedded, sectioned, and stained with hematoxylin and eosin. Histopathologic evaluations of the tissues were performed by a veterinary pathologist (KGB).
# [14] = Multiple dose pharmacokinetic study, plasma MnBuOE; assay type: in vivo, dog
# Protocol: MnBuOE was administered at 0.25 mg/kg Monday, Wednesday, and Friday (MWF). Dogs were treated concurrently with diphenhydramine (2 mg/kg every 12 h), famotidine (0.5 mg/kg every 12 h), and prednisone (1 mg/kg every 12 h) throughout these studies. Blood/plasma was collected at two time points: 1 h post dose (expected high levels but “safely” away the peak at C max = 0.5 h) and just prior to injection (trough level). The results are presented on Fig. 4a. As expected, the trough levels measured were very low. […] This would imply that no change in the expected mild acute side effects should be observed. […] The change in pulse increased over time for both treatment week and day of the week. Baseline pulse prior to injection was not altered with multiple doses of MnBuOE.
# [15] = 3 weeks post 0.25 mg/kg Mon/Wed/Fri, concurrent oral medications
# [16] = single 1 mg/kg sc, first order absorption two compartments
# [17] = single 1 mg/kg sc, non-compartmental
# [18] = 0.25 mg/kg sc Mon/Wed/Fri for 3 weeks, 1 h post-injection
smiles,measurement,setting,value
CC[n+]1ccccc1-c1c2nc(c(-c3cccc[n+]3CC)c3ccc([n-]3)c(-c3cccc[n+]3CC)c3nc(c(-c4cccc[n+]4CC)c4ccc1[n-]4)C=C3)C=C2.[Mn+3] [MnTE-2-PyP5+],"tissue accumulation, tumor compared to normal tissue",[1],accumulates preferentially in tumor tissue compared to normal tissue
same,effect on chemotherapeutic response,[2],enhanced the chemotherapeutic response
same,effect on chemotherapeutic response,[3],enhanced the chemotherapeutic response
"CCCCOCC[n+]1ccccc1-c1c2nc(c(-c3cccc[n+]3CCOCCCC)c3ccc([n-]3)c(-c3cccc[n+]3CCOCCCC)c3nc(c(-c4cccc[n+]4CCOCCCC)c4ccc1[n-]4)C=C3)C=C2.[Mn+3] [MnBuOE, Mn(III) meso-tetrakis (N-n-butoxyetylpyridium-2-yl) porphyrin]",Urinalysis,[4]; 3 weeks post 0.25 mg/kg Mon/Wed/Fri,Alkaline urine (pH = 9) (n = 2/3)
same,Complete blood cell count,"[4]; 3 weeks post 0.25 mg/kg Mon/Wed/Fri, concurrent diphenhydramine, famotidine, prednisone",Stress leukogram (exogenous glucocorticoids) (n = 3/3)
same,Chemistry panel: acid-base finding,[4]; [15],Slight to mild metabolic acidosis (increased anion gap)
same,Chemistry panel: cholesterol finding,[4]; [15],Mild hypocholesterolemia
same,Chemistry panel: liver enzyme finding,[4]; [15],"Mildly increased liver enzyme activity (ALP, ALT)"
same,Chemistry panel,[4]; 48 h post 0.25 mg/kg,No remarkable changes in serum biochemistries were seen; also recorded: Unremarkable
same,Complete blood cell count,[4]; 48 h post 0.25 mg/kg,Unremarkable
same,Urinalysis,"[4]; 48 h post 0.25 mg/kg, one dog analyzed",Alkaline urine (pH = 9) (n = 1/1)
same,Chemistry panel,[4]; 48 h post 1 mg/kg,Unremarkable
same,Complete blood cell count,[4]; 48 h post 1 mg/kg,Unremarkable
same,Urinalysis,[4]; 48 h post 1 mg/kg,Alkaline urine (pH = 9) (n = 2/3)
same,mean anion gap,"[4]; final day of 3-week 0.25 mg/kg study, reference range 11.2–19.9",21.5
same,mean ALT,"[4]; final day of 3-week 0.25 mg/kg study, reference range 12–54 IU/L",133 IU/L
same,mean ALP,"[4]; final day of 3-week 0.25 mg/kg study, reference range 16–140 IU/L",203 IU/L
same,mean cholesterol,"[4]; final day of 3-week 0.25 mg/kg study, reference range 124–344 mg/dL",96 mg/dL
same,"no adverse effects level (NOAEL), loading dose",[5],6 mg/kg
same,"no adverse effects level (NOAEL), maintenance dose",[5],2 mg/kg
same,Cmax,[6],1000 nM
same,Cmax,"[7]; 1 mg/kg, ref unpublished data",1000 nM
same,Cmax,[7]; dose adjusted from 6 mg/kg,~300 nM
same,heart rate 1 h after each injection,[8],Mildly to moderately increased heart rate
same,baseline pulse prior to injection,[8]; multiple doses,not altered
same,Cmax,[9],1600 nM
same,heart rate following injection,[10]; 0.25 mg/kg sc,104–116 beats per minute
same,pulse 24 h post-injection,[10]; 0.25 mg/kg sc,did not alter pulse rate 24 h post-injection; also recorded: normalized by 24 h
same,tachycardia grade,[10]; 0.25 mg/kg sc,did not induce a clinical tachycardia; also recorded: mild increase in heart rate
same,anaphylactic or local drug reactions,[10]; 0.25 mg/kg sc with premedication,No anaphylactic or local drug reactions were observed
same,local drug reaction at the injection site,[10]; 0.5 mg/kg sc,No local drug reaction at the injection site was noted
same,pulse 24 h post-injection,[10]; 0.5 mg/kg sc,remained slightly increased
same,tachycardia grade,[10]; 0.5 mg/kg sc,mild to moderate tachycardia
same,average heart rate at peak,"[10]; 0.5 mg/kg sc, one dog",144 beats per minute
same,anaphylactic reaction,"[10]; 0.5 mg/kg sc, one dog, pre-administration of diphenhydramine, famotidine, prednisone",did not occur
same,blood pressure change with tachycardia,[10]; 1 mg/kg sc,not associated with changes in blood pressure
same,local drug reactions in the subcutaneous site of injection,[10]; 1 mg/kg sc,occurred with two of the dogs
same,persistence of tachycardia,[10]; 1 mg/kg sc,at least 6 h
same,pulse 24 h post-injection,[10]; 1 mg/kg sc,remained increased compared to resting heart rates
same,tachycardia grade,[10]; 1 mg/kg sc,severe sinus tachycardia
same,average heart rate at peak,[10]; 1 mg/kg sc,210 beats per minute
same,time to development of acute anaphylactic drug reaction,"[10]; 1 mg/kg sc, following injection",15 to 20 min
same,acute drug reaction,"[10]; 1 mg/kg sc, no premedication",acute anaphylactic drug reaction; also recorded: induced an anaphylactic drug reaction
same,maximum tolerated dose (MTD),"[10]; sc, dogs, with premedication (anti-histamines, steroids)",0.25 mg/kg
same,indirect blood pressure after single dose,"[10]; single sc dose, Supplemental Fig. 2",subclinical fluctuations in recorded indirect blood pressures
same,"no adverse effects level (NOAEL), loading dose",[11],12 mg/kg
same,"no adverse effects level (NOAEL), maintenance dose",[11],2 mg/kg
same,"plasma half-life t 1/2, primary elimination from central compartment","[12]; single 1 mg/kg sc, 6 to 48 h",7 h
same,Cmax,"[12]; single 1 mg/kg sc, 30 min post-injection, 1 mg/kg, read-out: peak plasma concentration (C max), mean",3990 nM and 4000 nM
same,estimated terminal half-life (secondary processes),"[12]; single 1 mg/kg sc, 48 h to 14 days",480 h
same,MnBuOE remaining in plasma,"[12]; single 1 mg/kg sc, at 48 h",1%
same,time of peak plasma drug concentration (T max),"[12]; single 1 mg/kg sc, post-injection",0.5 h
same,AUCinfinite,[12]; [16],42.52
same,C max,[12]; [16],4830 ng/mL
same,CL/F,[12]; [16],0.02 L/h/kg body weight
same,V/F (4–48 h process),[12]; [16],0.14 L/kg body weight
same,t 1/2 (4–48 h),[12]; [16],6.64 h
same,t max,"[12]; single 1 mg/kg sc, first order absorption two compartments, averaged profile 0–48 h",0.46 h
same,AUC0–48h,[12]; [17],52.09
same,AUCinfinite,[12]; [17],57.82
same,C max,[12]; [17],5000 ng/mL
same,CL/F,[12]; [17],0.020 L/h/kg body weight
same,V/F (4–48 h process),[12]; [17],0.21 L/kg body weight
same,V/F (7–14 day process),[12]; [17],13.42 L/kg body weight
same,t 1/2 (4–48 h),[12]; [17],7.13 h
same,t 1/2 (7–14 day),[12]; [17],509.8 h
same,t max,"[12]; single 1 mg/kg sc, non-compartmental (WinNonlin), individual dogs",0.5 h
same,drug eliminated from the plasma,"[12]; single-dose 14-day PK study, after 48 h",99%
same,"Characteristics of lesion, kidney",[13]; necropsy,"Acute, multifocal, mild Acute multifocal, moderate"
same,"Characteristics of lesion, liver",[13]; necropsy,"Marked, multifocal to diffuse, random Marked, multifocal to diffuse, centrilobular to random Marked, diffuse, panlobular, random"
same,"Characteristics of lesion, lung",[13]; necropsy,"Multifocal, mild, neutrophilic, sterile Multifocal, moderate, neutrophilic sterile"
same,"Characteristics of lesion, subcutaneous adipose",[13]; necropsy,"Multifocal, mild"
same,"Histopathologic appearance, lymph nodes",[13]; necropsy,mildly reactive
same,"Incidence of diagnosis, kidney",[13]; necropsy,n = 3/3
same,"Incidence of diagnosis, liver",[13]; necropsy,n = 3/3
same,"Incidence of diagnosis, lung",[13]; necropsy,n = 3/3
same,"Incidence of diagnosis, subcutaneous adipose",[13]; necropsy,n = 3/3
same,"Histopathologic diagnosis, kidney",[13]; necropsy 48 h after last dose,"acute, mild to moderate tubular degeneration and necrosis of the kidney"
same,"Histopathologic diagnosis, liver",[13]; necropsy 48 h after last dose,marked hydropic degeneration of the liver
same,"Histopathologic diagnosis, lung",[13]; necropsy 48 h after last dose,mild to moderate sterile bronchointerstitial/interstitial pneumonia
same,"Histopathologic diagnosis, subcutaneous adipose (injection site)",[13]; necropsy 48 h after last dose,mild necrosupporative/granulomatous inflammation; also recorded: Necrosuppurative/granulomatous steatitis
same,plasma MnBuOE concentration following the initial dose,[14]; [18],1.4 µM
same,plasma MnBuOE concentration plateau with subsequent doses,[14]; [18],0.85 to 1.1 µM
same,trough plasma levels,"[14]; 0.25 mg/kg sc Mon/Wed/Fri, just prior to injection",very low
same,accumulation of the drug in plasma,"[14]; 0.25 mg/kg sc Mon/Wed/Fri, long-term treatment",no accumulation of the drug in plasma was observed; also recorded: no accumulation observed over time
